Data set [1] in a line: MTT cellular viability assay, OPM2. Format: cell-based. The settings on record: human, OPM2 cells, read-out: percentage of viable cells. The protocol: (§1) The effect of PMI-5011 and bioactive compounds on the viability of cells was tested using a standard colorimetric MTT assay. The MTT Cell Proliferation Assay Kit was purchased from VWR, Radnor, Pa. MM.1S and OPM2 cells were treated with 10 μg/mL of PMI-5011 and 1, 10, and 30 μg/mL of DMC-1, DMC-2, KOE and davidigenin and plated at a density of 10^6 cells/mL in a 96-well plate with each well containing 250 μL of the sample. The plated cells were then incubated at 37° C. for 16 h. 10 μg/mL for PMI-5011 and a 16-h treatment period was used in this study based on previous findings by Yu et al.^24 Parallel plates were prepared for positive and negative solvent vehicle control with the same volume of DMSO and ethanol as for the treated cells. On the day of the experiment, the 96-well plates were centrifuged at 1000×g at 4° C. for 5 min in a microplate compatible centrifuge. The media was discarded and 50 μL of serum-free media and 50 μL of the MTT reagent were added into each well. For a background control, 50 μL of the MTT reagent was added into a well containing media only (no cells). The plate was incubated at 37° C. for 3 h in the dark. After incubation, 150 μL of the MTT solvent was added into each well. The plate was wrapped in a foil and placed on an orbital shaker for 15 min. Finally, the absorbance was measured at λex=544 nm and λem=590 nm using a Wallac 1420 VICTOR2 multilabel HTS counter fluorometry (Perkin Elmer (Waltham, Mass.). The percentage viable cells was obtained by Eq. 1.
(§2) % Viable Cells=S-N/C-N×100 (Eq. 1)
(§3) Where, S denotes raw absorbance values from samples, N denotes average absorbance value of the background control and C denotes the highest average absorbance value of positive vehicle control. The obtained percentage cytotoxicity values were then statistically analyzed for their significance. Each data point represents triplicate data points from duplicate experiments. The effect of PMI-5011 and the selected bioactive compounds on C2C12 cell viability has previously been reported.^24

Data set [2] can be described thus: MTT cellular viability assay, MM.1S. Format: cell-based. As to conditions: human, MM.1S cells, read-out: percentage of viable cells. On the procedure: as §1, §2, §3
(In general: Tetrazolium assays rely on reduction of a dye to a coloured formazan, in cell work by metabolically active cells.)

As to `COc1ccc(CCC(=O)c2ccc(O)cc2O)cc1` [DMC-2, 1-(2,4-dihydroxyphenyl)-3-(4-methoxyphenyl)propan-1-one], the viability at 16 h, 1 μg/mL in data set [1] (1 μg/mL) is about 85%; in data set [2] (1 μg/mL) it was about 100%. For the same compound, the viability at 16 h, 30 μg/mL in data set [1] (30 μg/mL) was about 70%; in data set [2] (30 μg/mL), about 65%.
